Values of other authors, collected in patent US9918970B2, “Pharmaceutical composition comprising solifenacin” (Astellas Pharma Inc., priority 2010, dated 2018).

Target: muscarinic M3 receptor (Homo sapiens, UniProt P20309)
Sequence (P20309 whole entry): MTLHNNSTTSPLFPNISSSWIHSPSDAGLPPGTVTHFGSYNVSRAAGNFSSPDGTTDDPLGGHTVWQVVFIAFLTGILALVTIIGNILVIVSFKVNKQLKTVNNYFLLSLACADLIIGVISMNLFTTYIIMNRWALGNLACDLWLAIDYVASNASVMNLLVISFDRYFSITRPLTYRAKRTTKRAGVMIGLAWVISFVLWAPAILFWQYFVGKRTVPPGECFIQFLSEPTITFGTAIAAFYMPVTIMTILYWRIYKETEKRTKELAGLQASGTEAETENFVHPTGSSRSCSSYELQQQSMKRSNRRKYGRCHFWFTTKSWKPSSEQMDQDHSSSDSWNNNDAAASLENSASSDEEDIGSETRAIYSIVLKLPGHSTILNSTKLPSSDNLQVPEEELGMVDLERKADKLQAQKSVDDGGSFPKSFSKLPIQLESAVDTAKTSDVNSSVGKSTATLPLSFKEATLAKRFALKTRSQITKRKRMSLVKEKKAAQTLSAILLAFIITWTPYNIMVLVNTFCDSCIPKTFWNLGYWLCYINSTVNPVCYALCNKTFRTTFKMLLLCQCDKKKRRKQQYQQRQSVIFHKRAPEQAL

In the case of `O=C(O[C@H]1CN2CCC1CC2)N1CCc2ccccc2[C@@H]1c1ccccc1` [solifenacin, (R)-quinuclidin-3-yl (S)-1-phenyl-1,2,3,4-tetrahydroisoquinoline-2-carboxylate], the “antagonistic activity against muscarinic M3 receptor (in words)” value is listed as “excellent selective antagonistic activity” and the “selectivity for the M3 receptor as compared with the M2 receptor (in words)” value (M3 in smooth muscle, gland tissues, M2 in heart) is listed as “higher selectivity”.
